Test results from ChEMBL document CHEMBL4507292 (2021).

Columns and labels:
[1] = target: Activin receptor type-1B (Homo sapiens) (UniProt P36896); conditions: Compound concentration 1000.0 nM
[2] = target: Activin receptor type-2A (Homo sapiens) (UniProt P27037); conditions: Compound concentration 1000.0 nM
[3] = target: Cyclin-dependent kinase 4 (Homo sapiens) (UniProt P11802); conditions: Compound concentration 1000.0 nM
[4] = target: Death-associated protein kinase 3 (Homo sapiens) (UniProt O43293); conditions: Compound concentration 1000.0 nM
[5] = target: Discoidin domain-containing receptor 2 (Homo sapiens) (UniProt Q16832); conditions: Compound concentration 1000.0 nM
[6] = target: Dual specificity tyrosine-phosphorylation-regulated kinase 1A (Homo sapiens) (UniProt Q13627); conditions: Compound concentration 1000.0 nM
[7] = target: Dual specificity tyrosine-phosphorylation-regulated kinase 1B (Homo sapiens) (UniProt Q9Y463); conditions: Compound concentration 1000.0 nM
[8] = target: Ephrin type-A receptor 7 (Homo sapiens) (UniProt Q15375); conditions: Compound concentration 1000.0 nM
[9] = target: Fibroblast growth factor receptor 1 (Homo sapiens) (UniProt P11362); conditions: Compound concentration 1000.0 nM
[10] = tested on: Receptor-type tyrosine-protein kinase FLT3 (Homo sapiens), P36888 [R834Q]; conditions: Compound concentration 1000.0 nM
[11] = target: Cyclin-G-associated kinase (Homo sapiens) (UniProt O14976); conditions: Compound concentration 1000.0 nM
[12] = target: G protein-coupled receptor kinase 3 (Homo sapiens) (UniProt P35626); conditions: Compound concentration 1000.0 nM
[13] = target: Glycogen synthase kinase-3 alpha (Homo sapiens) (UniProt P49840); conditions: Compound concentration 1000.0 nM
[14] = target: Homeodomain-interacting protein kinase 3 (Homo sapiens) (UniProt Q9H422); conditions: Compound concentration 1000.0 nM
[15] = target: Interleukin-1 receptor-associated kinase 1 (Homo sapiens) (UniProt P51617); conditions: Compound concentration 1000.0 nM
[16] = target: Mast/stem cell growth factor receptor Kit (Homo sapiens) (UniProt P10721); conditions: Compound concentration 1000.0 nM
[17] = target: Mitogen-activated protein kinase kinase kinase 13 (Homo sapiens) (UniProt O43283); conditions: Compound concentration 1000.0 nM
[18] = target: Hepatocyte growth factor receptor (Homo sapiens) (UniProt P08581); conditions: Compound concentration 1000.0 nM
[19] = target: Serine/threonine-protein kinase MRCK beta (Homo sapiens) (UniProt Q9Y5S2); conditions: Compound concentration 1000.0 nM
[20] = target: Myosin light chain kinase 2, skeletal/cardiac muscle (Homo sapiens) (UniProt Q9H1R3); conditions: Compound concentration 1000.0 nM
[21] = target: Serine/threonine-protein kinase Nek6 (Homo sapiens) (UniProt Q9HC98); conditions: Compound concentration 1000.0 nM
[22] = target: Serine/threonine-protein kinase PAK 3 (Homo sapiens) (UniProt O75914); conditions: Compound concentration 1000.0 nM
[23] = target: Cyclin-dependent kinase 16 (Homo sapiens) (UniProt Q00536); conditions: Compound concentration 1000.0 nM
[24] = target: Phosphatidylinositol 4,5-bisphosphate 3-kinase catalytic subunit alpha isoform (Homo sapiens) (UniProt P42336); conditions: Compound concentration 1000.0 nM
[25] = target: Serine/threonine-protein kinase D3 (Homo sapiens) (UniProt O94806); conditions: Compound concentration 1000.0 nM
[26] = target: Protein-tyrosine kinase 2-beta (Homo sapiens) (UniProt Q14289); conditions: Compound concentration 1000.0 nM
[27] = target: Serine/threonine-protein kinase RIO3 (Homo sapiens) (UniProt O14730); conditions: Compound concentration 1000.0 nM
[28] = target: Serine/threonine-protein kinase Sgk3 (Homo sapiens) (UniProt Q96BR1); conditions: Compound concentration 1000.0 nM
[29] = target: Proto-oncogene tyrosine-protein kinase Src (Homo sapiens) (UniProt P12931); conditions: Compound concentration 1000.0 nM
[30] = target: Angiopoietin-1 receptor (Homo sapiens) (UniProt Q02763); conditions: Compound concentration 1000.0 nM
[31] = target: Phosphatidylinositol 3-kinase catalytic subunit type 3 (Homo sapiens) (UniProt Q8NEB9); conditions: Compound concentration 1000.0 nM
[32] = target: Serine/threonine-protein kinase WNK1 (Homo sapiens) (UniProt Q9H4A3); conditions: Compound concentration 1000.0 nM
[33] = target: Serine/threonine-protein kinase 25 (Homo sapiens) (UniProt O00506); conditions: Compound concentration 1000.0 nM
[34] = target: Mitogen-activated protein kinase kinase kinase 20 (Homo sapiens) (UniProt Q9NYL2); conditions: Compound concentration 1000.0 nM
[35] = target: T1, 5-hydroxytryptamine receptor 3A (Homo sapiens) (UniProt P46098); conditions: Compound concentration 10.0 uM
T1 sequence (whole entry): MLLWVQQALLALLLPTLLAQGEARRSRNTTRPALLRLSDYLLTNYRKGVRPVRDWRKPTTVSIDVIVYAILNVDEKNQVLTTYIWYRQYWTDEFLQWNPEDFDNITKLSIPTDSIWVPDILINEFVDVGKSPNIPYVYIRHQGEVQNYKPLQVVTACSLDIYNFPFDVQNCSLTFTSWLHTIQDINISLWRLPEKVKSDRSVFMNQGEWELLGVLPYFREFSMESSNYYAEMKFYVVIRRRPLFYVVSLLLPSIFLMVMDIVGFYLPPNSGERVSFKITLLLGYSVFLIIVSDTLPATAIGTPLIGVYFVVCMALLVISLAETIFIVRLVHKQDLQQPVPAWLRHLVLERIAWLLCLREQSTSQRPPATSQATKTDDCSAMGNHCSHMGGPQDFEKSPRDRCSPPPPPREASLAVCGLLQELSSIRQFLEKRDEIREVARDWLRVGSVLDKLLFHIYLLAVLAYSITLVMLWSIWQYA

[36] = target: 5-hydroxytryptamine receptor 5A (Homo sapiens) (UniProt P47898); conditions: Compound concentration 10.0 uM
[37] = target: D(3) dopamine receptor (Homo sapiens) (UniProt P35462); conditions: Compound concentration 10.0 uM
[38] = target: Alpha-1A adrenergic receptor (Homo sapiens) (UniProt P35348); conditions: Compound concentration 10.0 uM
[39] = target: Muscarinic acetylcholine receptor M1 (Homo sapiens) (UniProt P11229); conditions: Compound concentration 10.0 uM

Interleukin-1 receptor-associated kinase 1 (Homo sapiens), sequence (P51617 whole entry, looked up): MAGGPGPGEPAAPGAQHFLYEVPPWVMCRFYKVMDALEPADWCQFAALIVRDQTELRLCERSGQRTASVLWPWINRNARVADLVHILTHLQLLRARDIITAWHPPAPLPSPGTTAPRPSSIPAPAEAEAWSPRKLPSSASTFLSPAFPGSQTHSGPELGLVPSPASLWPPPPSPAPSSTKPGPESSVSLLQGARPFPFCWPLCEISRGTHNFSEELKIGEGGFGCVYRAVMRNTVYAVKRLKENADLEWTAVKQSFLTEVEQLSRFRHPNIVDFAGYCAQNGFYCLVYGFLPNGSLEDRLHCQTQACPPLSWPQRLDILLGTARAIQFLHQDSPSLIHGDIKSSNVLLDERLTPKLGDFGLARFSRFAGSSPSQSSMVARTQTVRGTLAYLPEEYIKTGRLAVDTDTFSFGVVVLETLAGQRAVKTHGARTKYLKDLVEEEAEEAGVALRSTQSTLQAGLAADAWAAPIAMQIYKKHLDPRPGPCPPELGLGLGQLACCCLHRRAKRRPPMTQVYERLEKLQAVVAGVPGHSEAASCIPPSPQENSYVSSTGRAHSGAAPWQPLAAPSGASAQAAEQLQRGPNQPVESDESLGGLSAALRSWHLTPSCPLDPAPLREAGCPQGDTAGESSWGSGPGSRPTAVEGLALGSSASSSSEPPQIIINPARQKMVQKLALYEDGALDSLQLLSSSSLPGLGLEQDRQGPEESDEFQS
Cyclin-G-associated kinase (Homo sapiens), sequence (O14976 whole entry): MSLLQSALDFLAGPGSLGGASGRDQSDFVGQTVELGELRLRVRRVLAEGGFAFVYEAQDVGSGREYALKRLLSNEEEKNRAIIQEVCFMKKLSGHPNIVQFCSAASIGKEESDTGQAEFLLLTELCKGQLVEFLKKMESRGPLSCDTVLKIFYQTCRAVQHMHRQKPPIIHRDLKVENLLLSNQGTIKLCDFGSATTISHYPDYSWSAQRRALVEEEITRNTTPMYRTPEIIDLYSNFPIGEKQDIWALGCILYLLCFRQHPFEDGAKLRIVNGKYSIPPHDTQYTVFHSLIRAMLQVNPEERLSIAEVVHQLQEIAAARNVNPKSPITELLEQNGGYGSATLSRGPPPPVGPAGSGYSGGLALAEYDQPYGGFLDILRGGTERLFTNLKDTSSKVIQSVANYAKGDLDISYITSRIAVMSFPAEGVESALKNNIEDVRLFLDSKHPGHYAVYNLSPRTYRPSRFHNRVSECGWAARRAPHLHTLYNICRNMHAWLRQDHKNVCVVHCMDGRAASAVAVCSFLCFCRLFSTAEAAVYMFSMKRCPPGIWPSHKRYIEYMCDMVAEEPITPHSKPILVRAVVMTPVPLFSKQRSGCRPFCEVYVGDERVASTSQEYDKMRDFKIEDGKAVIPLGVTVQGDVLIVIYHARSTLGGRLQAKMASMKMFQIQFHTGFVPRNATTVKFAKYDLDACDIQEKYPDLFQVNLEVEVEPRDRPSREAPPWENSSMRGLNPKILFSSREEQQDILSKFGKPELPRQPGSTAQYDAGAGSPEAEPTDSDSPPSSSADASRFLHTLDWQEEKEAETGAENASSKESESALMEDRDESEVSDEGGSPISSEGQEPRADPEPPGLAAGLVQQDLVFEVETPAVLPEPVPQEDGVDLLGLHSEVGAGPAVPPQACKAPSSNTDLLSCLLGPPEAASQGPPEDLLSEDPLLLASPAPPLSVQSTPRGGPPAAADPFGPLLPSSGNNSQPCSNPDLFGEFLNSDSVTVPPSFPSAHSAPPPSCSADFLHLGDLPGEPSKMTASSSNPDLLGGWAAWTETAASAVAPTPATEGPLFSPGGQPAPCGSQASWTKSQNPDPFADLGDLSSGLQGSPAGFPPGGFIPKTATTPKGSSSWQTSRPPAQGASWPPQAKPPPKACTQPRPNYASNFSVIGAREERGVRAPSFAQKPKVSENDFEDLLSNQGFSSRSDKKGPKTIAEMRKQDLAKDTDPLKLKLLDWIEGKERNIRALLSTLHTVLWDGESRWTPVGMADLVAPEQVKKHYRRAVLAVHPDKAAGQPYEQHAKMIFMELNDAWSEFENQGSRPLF
G protein-coupled receptor kinase 3 (Homo sapiens), sequence (P35626 whole entry): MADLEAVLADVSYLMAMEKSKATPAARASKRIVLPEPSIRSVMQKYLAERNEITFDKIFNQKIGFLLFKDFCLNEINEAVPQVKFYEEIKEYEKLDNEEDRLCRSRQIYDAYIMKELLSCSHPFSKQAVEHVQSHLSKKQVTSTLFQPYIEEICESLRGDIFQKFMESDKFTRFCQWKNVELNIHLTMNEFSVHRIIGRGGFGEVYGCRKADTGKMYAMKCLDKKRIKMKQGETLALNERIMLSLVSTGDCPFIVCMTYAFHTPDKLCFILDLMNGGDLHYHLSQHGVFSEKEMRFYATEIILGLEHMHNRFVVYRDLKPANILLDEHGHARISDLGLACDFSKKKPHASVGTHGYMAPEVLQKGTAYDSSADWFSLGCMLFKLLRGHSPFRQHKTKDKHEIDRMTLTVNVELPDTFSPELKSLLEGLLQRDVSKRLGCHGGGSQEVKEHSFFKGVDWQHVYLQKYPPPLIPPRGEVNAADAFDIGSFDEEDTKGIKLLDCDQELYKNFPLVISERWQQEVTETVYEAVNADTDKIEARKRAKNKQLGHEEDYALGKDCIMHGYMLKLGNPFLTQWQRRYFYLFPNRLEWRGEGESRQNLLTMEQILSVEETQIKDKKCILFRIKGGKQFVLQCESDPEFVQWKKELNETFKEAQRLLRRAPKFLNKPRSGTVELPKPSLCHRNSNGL
Alpha-1A adrenergic receptor (Homo sapiens), sequence (P35348 whole entry): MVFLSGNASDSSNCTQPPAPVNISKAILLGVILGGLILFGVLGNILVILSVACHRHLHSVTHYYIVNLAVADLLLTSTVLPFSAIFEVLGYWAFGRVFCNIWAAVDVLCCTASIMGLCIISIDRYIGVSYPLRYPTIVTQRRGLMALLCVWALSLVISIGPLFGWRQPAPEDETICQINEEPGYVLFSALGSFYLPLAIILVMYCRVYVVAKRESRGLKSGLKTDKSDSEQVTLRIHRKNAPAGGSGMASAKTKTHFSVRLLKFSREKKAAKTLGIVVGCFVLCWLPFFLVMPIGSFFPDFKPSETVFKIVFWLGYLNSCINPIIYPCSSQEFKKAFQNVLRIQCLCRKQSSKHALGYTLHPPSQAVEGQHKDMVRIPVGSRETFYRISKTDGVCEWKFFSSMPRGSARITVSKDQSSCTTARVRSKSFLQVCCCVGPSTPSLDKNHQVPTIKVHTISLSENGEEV
Protein-tyrosine kinase 2-beta (Homo sapiens), sequence (Q14289 whole entry, looked up): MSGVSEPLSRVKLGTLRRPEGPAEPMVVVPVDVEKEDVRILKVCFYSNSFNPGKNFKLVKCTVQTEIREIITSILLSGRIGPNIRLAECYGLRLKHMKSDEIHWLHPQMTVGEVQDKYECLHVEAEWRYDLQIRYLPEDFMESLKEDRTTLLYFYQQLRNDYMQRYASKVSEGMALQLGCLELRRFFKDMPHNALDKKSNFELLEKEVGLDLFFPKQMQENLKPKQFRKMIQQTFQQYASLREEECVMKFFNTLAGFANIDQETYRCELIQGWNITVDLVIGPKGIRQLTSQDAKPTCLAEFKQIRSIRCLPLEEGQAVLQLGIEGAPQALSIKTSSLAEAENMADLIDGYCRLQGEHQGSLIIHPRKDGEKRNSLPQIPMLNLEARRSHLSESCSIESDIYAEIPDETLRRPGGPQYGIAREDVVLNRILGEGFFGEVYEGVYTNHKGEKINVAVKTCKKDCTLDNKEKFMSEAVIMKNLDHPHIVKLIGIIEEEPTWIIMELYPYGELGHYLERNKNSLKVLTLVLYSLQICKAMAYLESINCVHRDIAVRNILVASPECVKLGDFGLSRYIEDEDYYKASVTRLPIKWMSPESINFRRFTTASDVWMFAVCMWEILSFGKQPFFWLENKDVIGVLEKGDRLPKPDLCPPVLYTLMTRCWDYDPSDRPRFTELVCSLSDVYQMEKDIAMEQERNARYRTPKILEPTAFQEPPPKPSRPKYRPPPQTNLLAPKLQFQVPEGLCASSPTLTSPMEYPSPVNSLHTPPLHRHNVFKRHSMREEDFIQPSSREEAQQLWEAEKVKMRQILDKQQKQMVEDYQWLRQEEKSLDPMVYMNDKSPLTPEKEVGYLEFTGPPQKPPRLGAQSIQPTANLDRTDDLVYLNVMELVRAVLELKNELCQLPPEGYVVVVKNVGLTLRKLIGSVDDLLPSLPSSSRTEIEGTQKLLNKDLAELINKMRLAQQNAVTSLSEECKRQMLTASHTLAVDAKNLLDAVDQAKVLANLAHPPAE
D(3) dopamine receptor (Homo sapiens), sequence (P35462 whole entry): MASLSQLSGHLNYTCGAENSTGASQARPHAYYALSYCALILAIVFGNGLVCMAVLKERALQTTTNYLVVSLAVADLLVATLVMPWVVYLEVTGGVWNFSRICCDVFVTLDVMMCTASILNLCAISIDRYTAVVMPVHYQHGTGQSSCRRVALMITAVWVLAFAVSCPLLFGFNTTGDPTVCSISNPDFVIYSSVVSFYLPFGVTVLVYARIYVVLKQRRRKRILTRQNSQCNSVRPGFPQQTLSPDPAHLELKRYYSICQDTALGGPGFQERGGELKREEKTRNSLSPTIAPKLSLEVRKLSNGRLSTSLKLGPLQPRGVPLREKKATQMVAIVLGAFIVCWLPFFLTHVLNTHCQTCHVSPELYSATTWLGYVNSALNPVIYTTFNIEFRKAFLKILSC
Serine/threonine-protein kinase 25 (Homo sapiens), sequence (O00506 whole entry, looked up): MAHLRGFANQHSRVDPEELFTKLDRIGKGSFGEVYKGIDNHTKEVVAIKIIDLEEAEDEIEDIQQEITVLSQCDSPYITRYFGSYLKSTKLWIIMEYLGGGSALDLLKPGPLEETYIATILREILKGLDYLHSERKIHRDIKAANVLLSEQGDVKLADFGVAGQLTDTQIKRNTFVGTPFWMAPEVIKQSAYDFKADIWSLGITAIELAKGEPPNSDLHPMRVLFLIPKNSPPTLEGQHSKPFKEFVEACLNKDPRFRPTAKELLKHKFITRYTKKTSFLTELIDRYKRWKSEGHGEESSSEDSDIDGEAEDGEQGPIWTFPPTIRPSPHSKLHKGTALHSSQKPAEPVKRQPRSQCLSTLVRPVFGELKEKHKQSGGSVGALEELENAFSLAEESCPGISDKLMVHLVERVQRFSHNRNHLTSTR

SMILES | residual activity [1] | residual activity [2] | residual activity [3] | residual activity [4] | residual activity [5] | residual activity [6] | residual activity [7] | residual activity [8] | residual activity [9] | residual activity [10] | residual activity [11] | residual activity [12] | residual activity [13] | residual activity [14] | residual activity [15] | residual activity [16] | residual activity [17] | residual activity [18] | residual activity [19] | residual activity [20] | further results
Cc1c(C(=O)O)cc(-c2ccc(C3CCNCC3)cc2)c2ccc(-c3ccc(C(F)(F)F)cc3)cc12 [PPTN-NC] | 100% | 87% | 100% | 100% | 100% | 100% | 74% | 100% | 100% | 100% | 100% | 71% | 100% | 100% | 100% | 100% | 100% | 100% | 100% | 100% | residual activity [21]: 100%; residual activity [22]: 100%; residual activity [23]: 100%; residual activity [24]: 100%; residual activity [25]: 100%; residual activity [26]: 100%; residual activity [27]: 100%; residual activity [28]: 100%; residual activity [29]: 100%; residual activity [30]: 100%; residual activity [31]: 100%; residual activity [32]: 100%; residual activity [33]: 100%; residual activity [34]: 100%; inhibition [35]: 4.62%; inhibition [36]: -0.81%; inhibition [37]: 46.7%; inhibition [38]: 25.4%; inhibition [39]: 7.22%
O=C(O)c1cc(-c2ccc(C3CCNCC3)cc2)c2ccc(-c3ccc(C(F)(F)F)cc3)cc2c1 [PPTN] | 100% | 100% | 100% | 100% | 100% | 100% | 88% | 100% | 100% | 100% | 100% | 68% | 99% | 100% | 100% | 100% | 100% | 100% | 100% | 100% | residual activity [21]: 100%; residual activity [22]: 100%; residual activity [23]: 100%; residual activity [24]: 100%; residual activity [25]: 100%; residual activity [26]: 100%; residual activity [27]: 100%; residual activity [28]: 100%; residual activity [29]: 100%; residual activity [30]: 100%; residual activity [31]: 100%; residual activity [32]: 100%; residual activity [33]: 100%; residual activity [34]: 100%; inhibition [35]: 4.14%; inhibition [36]: 4.98%; inhibition [37]: 65.6%; inhibition [38]: 46.7%; inhibition [39]: 4.16%
